# How the values were obtained:
# [1] = silk microspheres, depending on processing pH; cited from earlier work
# [2] = Binding of doxorubicin to silk carrier; assay type: physicochemical; settings: typically
# Text: In addition to having properties which make silk well suited to drug delivery in general, silk is uniquely suited to deliver doxorubicin, as we have observed that doxorubicin interacts strongly with the silk. […] The interaction between the silk and the doxorubicin also results in a large fraction (typically more than 50%) of the total doxorubicin dose is bound to the carrier. In some embodiments, therefore, the carrier may be proteolytically degraded to enhance release the bound doxorubicin. This provide an opportunity to design protease-triggered drug release systems. […] Degradation-mediated drug release from silk biomaterials can be used to design systems that provide drug locally proportionately to disease progression: aggressive disease/increased proteolysis would degrade the silk carrier more rapidly, releasing larger doses of drug than in healthy tissue.
# [3] = Doxorubicin storage stability in silk films/MPAs versus solution (fluorescence); assay type: physicochemical; settings: 3 weeks at −20° C. and 60° C.; excitation 430, emission 550
# Method: Silk films for degradation and stability studies were prepared by casting of 6% (w/v) silk solution containing 1.0 mg/mL doxorubicin on a patterned mold. After drying at ambient conditions for 48 hours the samples were removed and vapor annealed for 24 hours as previously described (Jin et al., 2005).
# After 3 weeks, the silk films were degraded with 10 mg/mL proteinase k for 6 hours, and doxorubicin concentration for all samples was determined by comparing fluorescence to a standard curve of known concentrations (excitation=430, emission=550).
# The silk DxR-MPA was evaluated at different time points for optical performance and drug content eluted by measuring absorbance at 495 nm and comparing measured values to a standard curve (FIGS. 11A & 33). […] The doxorubicin-loaded silk-MPAs were stored at −20° C.
smiles,measurement,setting,value
CN(C)c1ccc(C(=C2C=CC(=[N+](C)C)C=C2)c2ccc(N(C)C)cc2)cc1 [crystal violet],fraction released,[1],25-60%
COc1cccc2c1C(=O)c1c(O)c3c(c(O)c1C2=O)C[C@@](O)(C(=O)CO)C[C@@H]3O[C@H]1C[C@H](N)[C@H](O)[C@H](C)O1 [doxorubicin],fraction of the total doxorubicin dose bound to the carrier,[2],more than 50%
same,doxorubicin fluorescence after storage,[3],decreases

# Reference: US20140296174A1, “SILK-BASED MULTIFUNCTIONAL BIOMEDICAL PLATFORM” (TUFTS UNIVERSITY, priority 2011, published 2014)
